Assay results from ChEMBL document CHEMBL3991601, “The target landscape of clinical kinase drugs” (Science, 2017).
Active and inactive are the calls of the source. For most assays here, no stated cut-off is given here; in the data, actives have a measured Kd and inactives only a lower limit.

Legend:
[1] = target: Calcium/calmodulin-dependent protein kinase type II subunit delta (Homo sapiens, UniProt Q13557)
[2] = target: Receptor-interacting serine/threonine-protein kinase 3 (Homo sapiens, UniProt Q9Y572)
[3] = target: LIM domain kinase 1 (Homo sapiens, UniProt P53667)
[4] = target: T1, Interleukin-1 receptor-associated kinase 3 (Homo sapiens, UniProt Q9Y616)
T1 sequence (Q9Y616 whole entry): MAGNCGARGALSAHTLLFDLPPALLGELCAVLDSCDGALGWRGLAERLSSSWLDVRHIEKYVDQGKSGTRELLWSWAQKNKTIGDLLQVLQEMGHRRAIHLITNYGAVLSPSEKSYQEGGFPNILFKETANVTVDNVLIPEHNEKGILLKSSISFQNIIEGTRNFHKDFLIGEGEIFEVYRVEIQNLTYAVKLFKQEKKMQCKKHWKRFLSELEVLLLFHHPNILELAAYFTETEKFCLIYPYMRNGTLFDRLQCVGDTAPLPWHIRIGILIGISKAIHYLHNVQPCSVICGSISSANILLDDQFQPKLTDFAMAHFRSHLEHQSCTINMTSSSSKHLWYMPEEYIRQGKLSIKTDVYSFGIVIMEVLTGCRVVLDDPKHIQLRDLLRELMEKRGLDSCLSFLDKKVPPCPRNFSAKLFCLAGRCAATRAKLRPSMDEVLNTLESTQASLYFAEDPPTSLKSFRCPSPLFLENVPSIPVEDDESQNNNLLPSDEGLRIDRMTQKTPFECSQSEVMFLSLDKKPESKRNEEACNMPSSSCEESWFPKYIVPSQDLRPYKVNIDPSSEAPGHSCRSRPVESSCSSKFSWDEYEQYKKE

[5] = target: Serine/threonine-protein kinase pim-1 (Homo sapiens, UniProt P11309)
[6] = target: Guanine nucleotide-binding protein G(i) subunit alpha-2 (Homo sapiens, UniProt P04899)
[7] = target: T2, Heme oxygenase 2 (Homo sapiens, UniProt P30519)
T2 sequence (P30519 whole entry): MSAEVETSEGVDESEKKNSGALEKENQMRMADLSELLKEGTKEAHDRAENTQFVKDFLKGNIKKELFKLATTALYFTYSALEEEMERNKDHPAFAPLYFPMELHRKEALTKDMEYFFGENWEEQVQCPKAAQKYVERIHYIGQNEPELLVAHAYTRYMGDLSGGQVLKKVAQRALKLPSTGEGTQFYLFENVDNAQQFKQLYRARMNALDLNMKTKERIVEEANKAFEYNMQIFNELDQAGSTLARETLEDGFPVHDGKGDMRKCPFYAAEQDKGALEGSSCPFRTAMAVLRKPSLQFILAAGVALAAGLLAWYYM

[8] = target: Protein-tyrosine kinase 6 (Homo sapiens, UniProt Q13882)
[9] = target: 26S proteasome regulatory subunit 6B (Homo sapiens, UniProt P43686)
[10] = target: T3, Serine/threonine-protein kinase TAO2 (Homo sapiens, UniProt Q9UL54)
T3 sequence (Q9UL54 whole entry): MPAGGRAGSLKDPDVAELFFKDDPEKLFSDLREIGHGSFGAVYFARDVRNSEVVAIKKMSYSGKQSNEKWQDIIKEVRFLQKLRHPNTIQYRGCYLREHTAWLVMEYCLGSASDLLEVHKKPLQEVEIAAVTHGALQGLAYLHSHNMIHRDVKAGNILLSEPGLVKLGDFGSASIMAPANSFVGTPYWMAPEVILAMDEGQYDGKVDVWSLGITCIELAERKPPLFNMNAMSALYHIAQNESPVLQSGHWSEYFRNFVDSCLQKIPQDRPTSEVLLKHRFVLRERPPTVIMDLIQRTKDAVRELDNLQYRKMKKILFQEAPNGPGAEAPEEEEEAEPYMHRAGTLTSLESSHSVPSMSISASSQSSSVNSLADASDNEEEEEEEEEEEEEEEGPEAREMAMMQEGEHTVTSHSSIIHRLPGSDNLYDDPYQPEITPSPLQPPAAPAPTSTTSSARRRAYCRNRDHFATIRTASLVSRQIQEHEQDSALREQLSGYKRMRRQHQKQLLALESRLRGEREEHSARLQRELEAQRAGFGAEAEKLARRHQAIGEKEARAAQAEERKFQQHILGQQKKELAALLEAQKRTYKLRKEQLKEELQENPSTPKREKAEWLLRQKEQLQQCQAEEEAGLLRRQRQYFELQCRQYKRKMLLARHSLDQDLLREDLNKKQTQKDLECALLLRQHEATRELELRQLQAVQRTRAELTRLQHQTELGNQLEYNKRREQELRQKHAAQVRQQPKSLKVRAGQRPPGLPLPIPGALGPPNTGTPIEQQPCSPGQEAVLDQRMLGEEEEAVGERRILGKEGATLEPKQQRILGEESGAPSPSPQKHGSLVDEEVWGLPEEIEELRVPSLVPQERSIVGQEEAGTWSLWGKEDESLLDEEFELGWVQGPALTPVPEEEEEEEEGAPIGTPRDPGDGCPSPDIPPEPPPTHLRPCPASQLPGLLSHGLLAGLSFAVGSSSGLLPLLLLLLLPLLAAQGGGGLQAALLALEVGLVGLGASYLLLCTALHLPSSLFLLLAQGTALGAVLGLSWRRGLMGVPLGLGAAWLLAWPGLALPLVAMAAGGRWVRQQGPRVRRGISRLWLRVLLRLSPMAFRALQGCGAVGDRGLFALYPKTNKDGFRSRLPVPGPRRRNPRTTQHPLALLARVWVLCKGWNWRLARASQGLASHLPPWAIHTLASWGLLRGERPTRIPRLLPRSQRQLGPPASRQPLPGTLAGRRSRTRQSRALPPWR

[11] = target: Tyrosine-protein kinase HCK (Homo sapiens, UniProt P08631)
[12] = target: Mitogen-activated protein kinase 9 (Homo sapiens, UniProt P45984)
[13] = target: Epithelial discoidin domain-containing receptor 1 (Homo sapiens, UniProt Q08345)
Sequence of Epithelial discoidin domain-containing receptor 1 (Q08345 whole entry, the tested form may be a part): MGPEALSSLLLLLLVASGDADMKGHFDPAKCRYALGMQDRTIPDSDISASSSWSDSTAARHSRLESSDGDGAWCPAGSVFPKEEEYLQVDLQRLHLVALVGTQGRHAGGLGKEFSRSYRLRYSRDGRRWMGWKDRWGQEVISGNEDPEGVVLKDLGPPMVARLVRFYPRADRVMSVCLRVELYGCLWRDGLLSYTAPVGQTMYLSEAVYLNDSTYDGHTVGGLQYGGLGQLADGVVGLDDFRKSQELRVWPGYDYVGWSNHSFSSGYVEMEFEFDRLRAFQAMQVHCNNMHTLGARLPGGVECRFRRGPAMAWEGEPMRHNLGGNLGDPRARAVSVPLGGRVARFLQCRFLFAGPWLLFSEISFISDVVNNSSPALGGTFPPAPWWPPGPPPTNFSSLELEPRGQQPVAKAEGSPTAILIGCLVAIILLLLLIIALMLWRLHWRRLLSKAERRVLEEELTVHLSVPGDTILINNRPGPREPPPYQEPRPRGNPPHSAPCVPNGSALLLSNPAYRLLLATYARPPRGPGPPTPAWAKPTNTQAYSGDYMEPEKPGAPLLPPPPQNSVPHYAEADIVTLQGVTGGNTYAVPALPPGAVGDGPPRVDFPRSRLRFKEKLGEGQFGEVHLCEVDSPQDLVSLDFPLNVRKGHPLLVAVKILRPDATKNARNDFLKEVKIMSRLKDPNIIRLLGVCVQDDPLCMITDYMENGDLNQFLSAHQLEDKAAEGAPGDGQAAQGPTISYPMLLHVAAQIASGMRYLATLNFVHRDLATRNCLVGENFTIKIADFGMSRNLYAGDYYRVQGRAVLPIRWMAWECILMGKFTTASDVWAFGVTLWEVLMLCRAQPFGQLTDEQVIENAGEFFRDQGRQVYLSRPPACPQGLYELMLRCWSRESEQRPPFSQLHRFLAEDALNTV

Sequence of Serine/threonine-protein kinase pim-1 (P11309 whole entry): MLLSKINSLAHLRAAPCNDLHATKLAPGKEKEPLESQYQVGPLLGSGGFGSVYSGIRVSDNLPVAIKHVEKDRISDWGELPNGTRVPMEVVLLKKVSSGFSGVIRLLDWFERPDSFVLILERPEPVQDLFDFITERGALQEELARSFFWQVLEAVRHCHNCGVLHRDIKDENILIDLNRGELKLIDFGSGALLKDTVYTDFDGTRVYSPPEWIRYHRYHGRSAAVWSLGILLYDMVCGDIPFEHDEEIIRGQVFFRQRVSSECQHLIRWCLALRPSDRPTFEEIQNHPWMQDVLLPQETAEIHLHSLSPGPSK
Sequence of 26S proteasome regulatory subunit 6B (P43686 whole entry): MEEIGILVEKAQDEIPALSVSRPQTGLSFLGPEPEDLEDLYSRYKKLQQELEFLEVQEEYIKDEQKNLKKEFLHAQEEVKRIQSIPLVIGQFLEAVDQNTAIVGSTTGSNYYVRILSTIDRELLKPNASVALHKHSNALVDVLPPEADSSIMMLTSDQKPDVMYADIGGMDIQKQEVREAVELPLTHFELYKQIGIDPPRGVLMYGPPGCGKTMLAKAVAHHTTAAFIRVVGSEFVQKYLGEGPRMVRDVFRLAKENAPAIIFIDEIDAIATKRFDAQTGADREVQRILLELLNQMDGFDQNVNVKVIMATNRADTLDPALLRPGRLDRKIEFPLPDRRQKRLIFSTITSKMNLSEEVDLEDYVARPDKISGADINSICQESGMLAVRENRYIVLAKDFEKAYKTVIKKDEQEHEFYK
Sequence of Protein-tyrosine kinase 6 (Q13882 whole entry): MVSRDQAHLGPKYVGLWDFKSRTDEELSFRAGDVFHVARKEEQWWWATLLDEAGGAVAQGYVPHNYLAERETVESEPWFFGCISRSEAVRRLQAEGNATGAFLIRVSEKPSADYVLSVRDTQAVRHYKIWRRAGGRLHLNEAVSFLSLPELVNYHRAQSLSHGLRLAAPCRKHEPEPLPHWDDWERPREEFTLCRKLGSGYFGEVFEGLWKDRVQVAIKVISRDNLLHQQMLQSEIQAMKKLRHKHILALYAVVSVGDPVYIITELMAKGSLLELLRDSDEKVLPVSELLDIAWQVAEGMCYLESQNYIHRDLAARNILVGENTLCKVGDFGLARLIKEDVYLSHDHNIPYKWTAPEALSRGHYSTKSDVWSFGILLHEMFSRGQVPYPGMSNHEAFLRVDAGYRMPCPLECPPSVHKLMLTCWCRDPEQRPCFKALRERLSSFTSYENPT
Sequence of LIM domain kinase 1 (P53667 whole entry, the tested form may be a part): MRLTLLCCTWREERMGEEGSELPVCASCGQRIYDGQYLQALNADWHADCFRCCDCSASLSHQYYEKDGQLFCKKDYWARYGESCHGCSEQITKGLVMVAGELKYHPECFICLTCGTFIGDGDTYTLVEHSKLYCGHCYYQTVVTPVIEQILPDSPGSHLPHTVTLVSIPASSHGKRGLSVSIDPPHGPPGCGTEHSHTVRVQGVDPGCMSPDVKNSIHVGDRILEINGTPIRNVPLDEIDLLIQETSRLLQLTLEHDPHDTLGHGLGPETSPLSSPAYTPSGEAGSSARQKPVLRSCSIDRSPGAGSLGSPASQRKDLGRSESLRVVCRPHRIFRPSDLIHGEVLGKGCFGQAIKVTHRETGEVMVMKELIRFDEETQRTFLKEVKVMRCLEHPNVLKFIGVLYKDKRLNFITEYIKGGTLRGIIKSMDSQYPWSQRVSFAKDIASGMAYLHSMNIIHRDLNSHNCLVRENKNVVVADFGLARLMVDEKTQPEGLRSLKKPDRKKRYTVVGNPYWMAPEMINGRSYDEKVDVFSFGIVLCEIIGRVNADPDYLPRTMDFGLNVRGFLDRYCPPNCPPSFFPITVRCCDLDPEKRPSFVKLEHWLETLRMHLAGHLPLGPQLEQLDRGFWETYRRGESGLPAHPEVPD
Sequence of Tyrosine-protein kinase HCK (P08631 whole entry): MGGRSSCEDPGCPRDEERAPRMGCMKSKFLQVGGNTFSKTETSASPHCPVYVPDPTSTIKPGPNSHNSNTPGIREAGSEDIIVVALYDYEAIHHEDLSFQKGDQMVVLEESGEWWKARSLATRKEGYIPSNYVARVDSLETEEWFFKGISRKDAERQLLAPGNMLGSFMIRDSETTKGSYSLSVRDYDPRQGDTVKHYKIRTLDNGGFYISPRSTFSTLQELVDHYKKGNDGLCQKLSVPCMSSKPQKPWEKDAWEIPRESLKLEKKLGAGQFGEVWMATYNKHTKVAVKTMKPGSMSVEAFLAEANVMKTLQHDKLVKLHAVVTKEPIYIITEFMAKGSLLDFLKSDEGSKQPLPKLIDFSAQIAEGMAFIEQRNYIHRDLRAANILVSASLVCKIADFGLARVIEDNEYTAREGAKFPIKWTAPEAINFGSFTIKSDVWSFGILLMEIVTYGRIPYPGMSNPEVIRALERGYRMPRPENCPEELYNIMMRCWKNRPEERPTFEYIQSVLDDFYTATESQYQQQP
Sequence of Guanine nucleotide-binding protein G(i) subunit alpha-2 (P04899 whole entry): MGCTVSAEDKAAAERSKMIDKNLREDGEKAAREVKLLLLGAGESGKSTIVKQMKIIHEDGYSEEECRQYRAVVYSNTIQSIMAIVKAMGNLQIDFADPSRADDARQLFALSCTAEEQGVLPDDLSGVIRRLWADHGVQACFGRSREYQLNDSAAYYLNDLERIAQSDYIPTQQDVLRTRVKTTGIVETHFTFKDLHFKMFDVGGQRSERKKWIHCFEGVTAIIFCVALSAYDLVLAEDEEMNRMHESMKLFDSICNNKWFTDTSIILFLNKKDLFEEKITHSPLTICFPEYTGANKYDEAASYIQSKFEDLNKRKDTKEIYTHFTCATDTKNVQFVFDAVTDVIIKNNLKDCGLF
Sequence of Receptor-interacting serine/threonine-protein kinase 3 (Q9Y572 whole entry, the tested form may be a part): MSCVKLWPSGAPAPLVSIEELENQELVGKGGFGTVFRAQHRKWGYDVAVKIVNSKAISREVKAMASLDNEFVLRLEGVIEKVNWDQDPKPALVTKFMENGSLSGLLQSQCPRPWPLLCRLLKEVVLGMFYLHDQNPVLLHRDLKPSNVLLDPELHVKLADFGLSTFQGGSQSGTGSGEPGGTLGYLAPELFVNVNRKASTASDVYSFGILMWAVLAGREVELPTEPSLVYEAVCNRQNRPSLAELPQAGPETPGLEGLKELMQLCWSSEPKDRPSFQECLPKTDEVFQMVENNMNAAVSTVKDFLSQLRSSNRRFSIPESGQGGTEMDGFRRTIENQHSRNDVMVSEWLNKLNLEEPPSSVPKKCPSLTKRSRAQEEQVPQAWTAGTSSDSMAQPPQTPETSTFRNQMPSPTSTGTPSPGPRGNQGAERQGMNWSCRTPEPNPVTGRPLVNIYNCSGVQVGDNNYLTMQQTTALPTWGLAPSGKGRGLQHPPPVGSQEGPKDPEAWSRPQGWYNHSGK
Sequence of Calcium/calmodulin-dependent protein kinase type II subunit delta (Q13557 whole entry): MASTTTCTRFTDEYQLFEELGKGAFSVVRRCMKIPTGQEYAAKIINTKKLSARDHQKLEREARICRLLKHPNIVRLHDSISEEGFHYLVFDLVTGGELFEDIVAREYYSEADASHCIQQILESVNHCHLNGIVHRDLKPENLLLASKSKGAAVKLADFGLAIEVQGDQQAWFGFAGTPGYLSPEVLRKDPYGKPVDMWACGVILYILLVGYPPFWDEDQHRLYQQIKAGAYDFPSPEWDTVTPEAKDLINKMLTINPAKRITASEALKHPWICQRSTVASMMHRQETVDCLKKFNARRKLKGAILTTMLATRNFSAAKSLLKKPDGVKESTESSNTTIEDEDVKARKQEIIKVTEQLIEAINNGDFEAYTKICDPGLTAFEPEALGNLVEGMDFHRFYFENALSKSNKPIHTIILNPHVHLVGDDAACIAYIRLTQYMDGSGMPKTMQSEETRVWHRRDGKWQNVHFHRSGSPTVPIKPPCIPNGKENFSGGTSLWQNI

| SMILES | Kd [1] | Kd [2] | Kd [3] | Kd [4] | Kd [5] | Kd [6] | Kd [7] | Kd [8] | Kd [9] | Kd [10] | Kd [11] | Kd [12] | Kd [13] |
| --- | --- | --- | --- | --- | --- | --- | --- | --- | --- | --- | --- | --- | --- |
| CNC(=O)c1cccc(-c2ccc3c(N4CCOC[C@@H]4C)nc(N4CCOC[C@@H]4C)nc3n2)c1 [VISTUSERTIB] | > 30 µM (inactive) | > 30 µM (inactive) | > 30 µM (inactive) | > 30 µM (inactive) | > 30 µM (inactive) | > 30 µM (inactive) | > 30 µM (inactive) | > 30 µM (inactive) | > 30 µM (inactive) | > 30 µM (inactive) | > 30 µM (inactive) | > 30 µM (inactive) | – |
| CNC(=O)c1cc(COc2nnc(Nc3ccc(Cl)cc3)c3ccoc23)ccn1 [TELATINIB] | > 30 µM (inactive) | > 30 µM (inactive) | > 30 µM (inactive) | > 30 µM (inactive) | > 30 µM (inactive) | – | > 30 µM (inactive) | > 30 µM (inactive) | > 30 µM (inactive) | > 30 µM (inactive) | > 30 µM (inactive) | > 30 µM (inactive) | > 30 µM (inactive) |
| Cn1c(=O)c(F)c(Nc2ccc(I)cc2F)c2c(=O)n(C[C@@H](O)CO)cnc21 [TAK-733] | > 30 µM (inactive) | > 30 µM (inactive) | > 30 µM (inactive) | > 30 µM (inactive) | > 30 µM (inactive) | – | > 30 µM (inactive) | > 30 µM (inactive) | > 30 µM (inactive) | > 30 µM (inactive) | > 30 µM (inactive) | > 30 µM (inactive) | > 30 µM (inactive) |
| CC[C@@](C)(Nc1ccnc(-c2c[nH]c3ncccc23)n1)C(=O)NCC(F)(F)F [DECERNOTINIB] | 20.3 µM (active) | > 30 µM (inactive) | > 30 µM (inactive) | > 30 µM (inactive) | > 30 µM (inactive) | – | > 30 µM (inactive) | > 30 µM (inactive) | > 30 µM (inactive) | > 30 µM (inactive) | > 30 µM (inactive) | > 30 µM (inactive) | > 30 µM (inactive) |
| O=C(NOC[C@H](O)CO)c1ccc(F)c(F)c1Nc1ccc(I)cc1F [MIRDAMETINIB] | > 30 µM (inactive) | > 30 µM (inactive) | > 30 µM (inactive) | > 30 µM (inactive) | > 30 µM (inactive) | – | > 30 µM (inactive) | > 30 µM (inactive) | > 30 µM (inactive) | > 30 µM (inactive) | > 30 µM (inactive) | > 30 µM (inactive) | > 30 µM (inactive) |
| C[C@@H]1COC(Nc2ccc3ncnc(Nc4ccc(OCc5nccs5)c(Cl)c4)c3c2)=N1 [VARLITINIB] | > 30 µM (inactive) | 0.088 µM (active) | > 30 µM (inactive) | > 30 µM (inactive) | > 30 µM (inactive) | – | > 30 µM (inactive) | > 30 µM (inactive) | > 30 µM (inactive) | > 30 µM (inactive) | > 30 µM (inactive) | > 30 µM (inactive) | > 30 µM (inactive) |
| CNC(=O)c1ccc(Nc2ncc(C(F)(F)F)c(NCc3nccnc3N(C)S(C)(=O)=O)n2)cc1 [DEFACTINIB] | > 30 µM (inactive) | > 30 µM (inactive) | > 30 µM (inactive) | > 30 µM (inactive) | > 30 µM (inactive) | – | > 30 µM (inactive) | > 30 µM (inactive) | > 30 µM (inactive) | > 30 µM (inactive) | > 30 µM (inactive) | > 30 µM (inactive) | > 30 µM (inactive) |
| Cc1ccc(C(=O)Nc2ccc(Oc3cc4cnn(C)c4cc3-c3cn[nH]c3)c(F)c2)c(=O)n1-c1ccc(F)cc1 [MERESTINIB] | > 30 µM (inactive) | > 30 µM (inactive) | > 30 µM (inactive) | > 30 µM (inactive) | > 30 µM (inactive) | – | > 30 µM (inactive) | > 30 µM (inactive) | > 30 µM (inactive) | > 30 µM (inactive) | > 30 µM (inactive) | > 30 µM (inactive) | 0.174 µM (active) |
| CCOc1ccn(-c2ccc(F)cc2)c(=O)c1C(=O)Nc1ccc(Oc2ccnc(N)c2Cl)c(F)c1 [BMS-777607] | > 30 µM (inactive) | > 30 µM (inactive) | > 30 µM (inactive) | – | > 30 µM (inactive) | > 30 µM (inactive) | > 30 µM (inactive) | > 30 µM (inactive) | > 30 µM (inactive) | > 30 µM (inactive) | > 30 µM (inactive) | > 30 µM (inactive) | 0.039 µM (active) |
| Cc1c(Cn2c(C)nc3c(C(=O)O)cc(N4CCOCC4)cc32)cccc1C(F)(F)F [GSK-2636771] | > 30 µM (inactive) | > 30 µM (inactive) | > 30 µM (inactive) | > 30 µM (inactive) | > 30 µM (inactive) | – | > 30 µM (inactive) | > 30 µM (inactive) | > 30 µM (inactive) | > 30 µM (inactive) | > 30 µM (inactive) | > 30 µM (inactive) | > 30 µM (inactive) |
| CCc1nc(C(N)=O)c(Nc2ccc(N3CCC(N4CCN(C)CC4)CC3)c(OC)c2)nc1NC1CCOCC1 [GILTERITINIB] | 0.207 µM (active) | 1.3 µM (active) | > 30 µM (inactive) | – | > 30 µM (inactive) | > 30 µM (inactive) | > 30 µM (inactive) | > 30 µM (inactive) | > 30 µM (inactive) | 2.09 µM (active) | 1.59 µM (active) | 0.43 µM (active) | > 30 µM (inactive) |
| COc1cc2ncnc(Nc3ccc(O)cc3)c2cc1OC [WHI-P131] | > 30 µM (inactive) | > 30 µM (inactive) | > 30 µM (inactive) | > 30 µM (inactive) | > 30 µM (inactive) | – | > 30 µM (inactive) | > 30 µM (inactive) | > 30 µM (inactive) | > 30 µM (inactive) | > 30 µM (inactive) | > 30 µM (inactive) | > 30 µM (inactive) |
| COc1ccc(-c2ccc3ncc4c(c3c2)n(-c2ccc(N3CCNCC3)c(C(F)(F)F)c2)c(=O)n4C)cn1 [BGT-226 FREE BASE] | > 30 µM (inactive) | > 30 µM (inactive) | > 30 µM (inactive) | > 30 µM (inactive) | > 30 µM (inactive) | – | > 30 µM (inactive) | > 30 µM (inactive) | > 30 µM (inactive) | > 30 µM (inactive) | > 30 µM (inactive) | > 30 µM (inactive) | > 30 µM (inactive) |
